What was measured:
Assay type in all cases: in vivo
[1] = test system: acetic-acid induced chronic gastric ulcers; assay: Treatment of acetic-acid induced chronic gastric ulcers in rats
Description: After fasting for 24 hours, the rats were anesthetized and disinfected in a conventional way, and then was cut from the xiphoid down along the medioventral line to about 2 cm, so as to remove the stomach from the enterocoelia; 5 μl of 100% glacial acetic acid was injected by using a microsyringe into a position close to the muscular layer below the anterior wall serosa of the gastric antrum; when a translucent white spot with a diameter of about 3 mm appeared, the stomach was given back to the enterocoelia, and was enveloped in omentum majus; then, peritoneum, muscular layer and skin were sutured in this order.
Each drug was divided into 5 groups according to the administration method described above, namely, a model group and four groups with different doses of drugs. Each group of the drugs was administered to 6 to 8 […]. At the third day after the surgery, the treatment started by intragastrically administering drugs to the rats once a day for 7 days, wherein normal saline was administered in the same volume to the rats in the model group instead. […] The following indices were measured:
(1) ulcer index: the longest diameter in the length direction of an ulcer area and the longest diameter in the width direction perpendicular to the longest diameter in the length direction of the ulcer area were measured by a vernier caliper, and the product of the above two diameters is the ulcer index.
(2) ulcer inhibition rate: it represents the inhibition effect of a drug on the ulcer index.

[2] = test system: IL-1β-induced recurrence of acetic-acid induced chronic gastric ulcers; assay: Prevention of IL-1β-induced recurrence of acetic-acid induced chronic gastric ulcers in rats; details: 10 mg/kg/d intragastric for 7 days before IL-1β
Description: In this study and experiment, we evaluated the preventive effect of the tested drug (namely, the bioactive glass) on the recurrence of chronic gastric ulcers by adopting the rat model of IL-1β-induced recurrence of acetic-acid induced chronic gastric ulcer, and using omeprazole as the control.
The model of acetic-acid induced chronic gastric ulcer was first copied here: After fasting for 24 hours, the rats were anesthetized and disinfected in a conventional way, and then was cut from the xiphoid down along the medioventral line to about 2 cm, so as to remove the stomach from the enterocoelia; 5 μl of 100% glacial acetic acid was injected by using a microsyringe into a position close to the muscular layer below the anterior wall serosa of the gastric antrum; when a translucent white spot with a diameter of about 3 mm appeared, the stomach was given back to the enterocoelia, and was enveloped in omentum majus; then, peritoneum, muscular layer and skin were sutured in this order. 90 days after the injection of acetic acid, a model of gastric ulcer recurrence was copied by intraperitoneal injection of 1 μg/kg of IL-1β according to the method described in “Role of neutrophils in a rat model of gastric ulcer recurrence caused by interleukin-1 beta”, T. Watanabe, T. Arakawa, T. Fukuda, K. Higuchi, and K. Kobayashi, Am J Pathol, 1997, 150:971-979 . […]

[3] = test system: mouse stress-induced gastric ulcers; assay: Comparative experiment on inhibition of stress-induced gastric ulcers versus representative drugs; details: mice, intragastric, stress in water 15 hours
Description: The mice were divided into four groups, to which deionized water (the solvent control group), and three kinds of Weibeisheng with pH 7, 8 and 9 at a dose of 1 g/kg were respectively intragastrically administrated. Two hours later, the mice were subjected to stress in water at 21±1° C. for 15 hours, and were administered again two hours before the end of the stress. Then the animals were killed and autopsy was performed. […]
Two hours later, the mice were subjected to stress in water at 21±1° C. for 15 hours (the drug was administered to the Weibeisheng group again two hours before the end of stress). […] After the ulcer index of each group was scored, the inhibition effect of each drug on mouse stress-induced gastric ulcers (namely, the maximum inhibition rate Emax) was calculated.
The ratios used in these two Experiment Examples were determined according to the weight of the mouse and the amount of intragastric administration.

## COc1ccc2[nH]c([S+]([O-])Cc3ncc(C)c(OC)c3C)nc2c1 (centres unmarked) [Omeprazole, omeprazole]
[1]; Rattus norvegicus, po, 168 h, rats, intragastric once a day for 7 days, ulcer inhibition rate, read-out: ED50 (median effective dose)
  ED50: 1.3 mg/kg
[1]; chronic gastric ulcers, as stated in summary/description
  median effective dose ED50 for treating chronic gastric ulcers: 1.3 mg/kg/day
[1]; rats, intragastric once a day for 7 days
  Emax (maximum inhibition rate): 66.2 ± 7.4%
[2]
  preventive effect on the recurrence of chronic gastric ulcers (inhibition rate): 50%
[3]
  Emax (% inhibition rate): 64.8 % inhibition rate
